Values quoted from earlier work as cited in patent US9937184B2 (THEOCORP HOLDING COMPANY, LLC, priority 2013, dated 2018).

Assays:
[1] = in vivo
[2] = system: UMR 106-01 rat obsteoblast-like cells; conditions: prior art results (Kamagata-Kiyoura 1999)

Row | SMILES | plasma half-life (t1/2) in the bloodstream [1] | proliferation of osteoblast-like cells (UMR 106-01) [2]
1 | Cn1cnc2c1c(=O)[nH]c(=O)n2C [Theobromine, 3,7-dimethyl-2,3,6,7-tetrahydro-1H-purine-2,6-dione] | six | –
2 | Cn1c(=O)c2c(ncn2C)n(C)c1=O [caffeine, 1,3,7-trimethylxanthine] | – | inhibits cell proliferation
